The source of these data is patent US11180498B2, “Substituted pyrrolo[2,3-b]pyridines, pyrazolo[3,4-d]pyrimidines and [1,2,3]triazolo[4,5-b]pyridines as potent antivirals” (The Regents of the University of California, priority 2017, dated 2021).

Structures are written as SMILES.

Data set [1] has as its system Enterovirus 71. Put plainly: Virus CPE assay, EV71 in LLC cells. It counts as cell-based. The note with it: Enterovirus A, >10 = no antiviral activity at 10 μM.
For data set [2], the system named is Coxsackievirus A9. Put plainly: Virus CPE assay, COX A9 in LLC cells. It counts as cell-based. The note with it: Enterovirus B, >10 = no antiviral activity at 10 μM.
The subject of data set [3] is Echovirus 11. Nature of the data set: Virus CPE assay, ECHO11 in LLC cells. It counts as cell-based. The note with it: Enterovirus B, >10 = no antiviral activity at 10 μM.
The subject of data set [4] is Echovirus 6. Put plainly: Virus CPE assay, ECHO06 in LLC cells. In kind it is cell-based. The conditions noted are these: Enterovirus B, >10 = no antiviral activity at 10 μM.
The test system of data set [5] is Echovirus 7. Nature of the data set: Virus CPE assay, ECHO07 in LLC cells. In kind it is cell-based. The conditions noted are these: Enterovirus B, >10 = no antiviral activity at 10 μM.
Data set [6] has as its system Echovirus 9. Nature of the data set: Virus CPE assay, ECHO09 in LLC cells. In kind it is cell-based. The note with it: Enterovirus B, >10 = no antiviral activity at 10 μM.
The test system of data set [7] is Coxsackievirus B2. Put plainly: Virus CPE assay, CVB2 in HeLa-RW cells. The note with it: Enterovirus B, >10 = no antiviral activity at 10 μM. In kind it is cell-based.
Data set [8] deals with Poliovirus 3. Put plainly: microbe, parasite or virus in culture. In kind it is cell-based. The conditions noted are these: Enterovirus C, read-out: EC50 PV3.
The test system of data set [9] is Poliovirus 1. Put plainly: microbe, parasite or virus in culture. It counts as cell-based. The note with it: Enterovirus C, read-out: EC50 PV1.
Data set [10] deals with Echovirus 25. Nature of the data set: Virus CPE assay, ECHO25 in LLC cells. It counts as cell-based. The note with it: Enterovirus B, >10 = no antiviral activity at 10 μM.
Data set [11] concerns Coxsackievirus B1. Put plainly: Virus CPE assay, CVB1 in HeLa-RW cells. In kind it is cell-based. The note with it: Enterovirus B, >10 = no antiviral activity at 10 μM.
Data set [12] has as its system Coxsackievirus B5. Put plainly: Virus CPE assay, CVB5 in HeLa-RW cells. It counts as cell-based. The conditions noted are these: Enterovirus B, >10 = no antiviral activity at 10 μM.
Data set [13] concerns Echovirus 30. Nature of the data set: Virus CPE assay, ECHO30 in LLC cells. It counts as cell-based. The note with it: Enterovirus B, >10 = no antiviral activity at 10 μM.
The subject of data set [14] is Coxsackievirus B4. Put plainly: Virus CPE assay, CVB4 in HeLa-RW cells. In kind it is cell-based. The conditions noted are these: Enterovirus B, >10 = no antiviral activity at 10 μM.
Data set [15] relates to Coxsackievirus B3-H3. Nature of the data set: Virus CPE assay, CVB3-H3 in HeLa-RW cells. It counts as cell-based. The note with it: >10/>25 = no antiviral activity at 10 or 25 μM.
The subject of data set [16] is Enterovirus D68. Nature of the data set: Antiviral cell-based assays, summary for at least one strain. The note with it: Enterovirus D, not named, read-out: EC50 against at least one strain. The protocol: (§1) Cells growing in 96 well plates are infected with a given virus at given low multiplicities of infection pre-determined to result in 100% cytopathic effects (CPE) in the cultures after 3-4 days incubation. Cultures are monitored daily for microscopic signs of typical CPE: rounding of cells and detachment. […] Dead cells and debris are washed out and the remaining blue stain intensity in each well is quantified by spectrophotometry at a wavelength of 590 nm (OD590) as a measurement of viability. […] Serial 2-fold dilutions of an active compound are prepared. […] Table 4 provides the results of cell-based assays with RD cells evaluating the antiviral activities of certain representative compounds of the present technology with certain strains of Enterovirus D68, namely strains Fermon (“D68/Fermon”), US/Mo/14-18949 (“D68/US/Mo/14-18949”), and US/KY/14-18953 (“D68/US/KY/14-18953”). The values indicated in the strain columns are EC50 values in μM units. The CC50 values (in μM units) for RD cells are also provided for evaluation of SI50.

The subject of data set [17] is LLC cells. Put plainly: Cytotoxicity (CC50) in LLC cells. It counts as cell-based. The conditions noted are these: concentration that reduces host cell viability by 50%. On the procedure:
(§2) Each compound is initially tested against each virus at 10 μM in a virus CPE assay. A compound that is active against a virus, protecting the cells from CPE, is further evaluated for its 50% effective concentration (EC50) value and 50% cytotoxicity concentration (CC50) value. Serial 2-fold dilutions of an active compound are prepared. For EC50 value determination, a 7-point dose-response curve is constructed using a virus CPE assay and EC50 value is estimated using four parameter model or sigmoidal model. For CC50 value determination, cells are incubated with serial 2-fold dilutions of a compound for the same period as the virus CPE assay, and then cells were fixed, stained and read as in the virus CPE assay.
(§3) Table 3 provides the compound concentration in μM units that reduces cell viability of the host cell by 50% (CC50) for certain compounds of the present technology for HeLa-RW and LLC cells. Blank cells indicate that the cytotoxicity assessment is not yet complete.

For data set [18], the system named is HeLa-RW cells. Nature of the data set: Cytotoxicity (CC50) in HeLa-RW cells. It counts as cell-based. The conditions noted are these: concentration that reduces host cell viability by 50%. On the procedure: as §2, §3
In data set [19] the test system is Enterovirus D68 strain Fermon. Put plainly: Virus CPE assay, Enterovirus D68 Fermon in RD cells. In kind it is cell-based. The conditions noted are these: Enterovirus D. On the procedure: as §1
Data set [20] can be described thus: Cytotoxicity (CC50) in RD cells. It counts as cell-based. The note with it: human. The protocol:
as §2
Table 4 provides the results of cell-based assays with RD cells evaluating the antiviral activities of certain representative compounds of the present technology with certain strains of Enterovirus D68, namely strains Fermon (“D68/Fermon”), US/Mo/14-18949 (“D68/US/Mo/14-18949”), and US/KY/14-18953 (“D68/US/KY/14-18953”). The values indicated in the strain columns are EC50 values in μM units. The CC50 values (in μM units) for RD cells are also provided for evaluation of SI50.

Data set [21] has as its system Enterovirus D68 strain US/KY/14-18953. Put plainly: Virus CPE assay, Enterovirus D68 US/KY/14-18953 in RD cells. It counts as cell-based. The note with it: Enterovirus D. On the procedure:
as §1

For data set [22], the system named is Enterovirus D68 strain US/Mo/14-18949. Nature of the data set: Virus CPE assay, Enterovirus D68 US/Mo/14-18949 in RD cells. In kind it is cell-based. The note with it: for EC50: Enterovirus D, RD cells. On the procedure: as §1
A short description of data set [23]: Cytotoxicity (CC50) in LLC cells. It counts as cell-based. The conditions noted are these: LLC cells; concentration that reduces host cell viability by 50%. On the procedure:
as §2, §3

For orientation: EC50 means the concentration that produces a half-maximal response. Broadly, the CC50 is the concentration at which the toxic effect on the cells reaches its halfway point. Low values mean greater toxicity to the cells, high ones lower toxicity to the cells.

For `CC(C)n1ncc2c(C(=O)Nc3ccc(F)cc3)nc(-c3cccs3)nc21` [JX-036], the concentration giving a half-maximal response (EC50) in data set [1], in data set [2], in [3], in [4], in data set [5] and in data set [6] was more than 10000 nM in each case. Also, the EC50 in [7], in [8], in data set [9], in data set [10], in data set [11] and in data set [12] was more than 10000 nM in each case. Also, the concentration giving a half-maximal response (EC50) in [13], in [14] and in [15] was more than 10000 nM throughout.

As to `CC(C)n1ccc2c(C(=O)Nc3ccncc3)cc(-c3cccs3)nc21` [JX-063], the EC50 in data set [7], in data set [8], in data set [9], in data set [11], in data set [12] and in data set [14] was more than 10000 nM each time. In [15], this molecule registered an EC50 of more than 10000 nM.

On to `CC(C)n1ccc2c(C(=O)Nc3ccccn3)cc(-c3cccs3)nc21` [JX-072], for which the EC50 in data set [16] is less than 1000 nM; in [1], 1200 nM; in data set [5] it was 3000 nM; in [7], 2330 nM; in data set [8] it was more than 10000 nM; in [9], more than 10000 nM. For the same molecule, the EC50 in data set [11] is 1560 nM; in [19], less than 400 nM; in [21] it was 600 nM; in data set [15], 2200 ± 400 nM. Besides, the CC50 in data set [17] is more than 200000 nM; in data set [18], 18800 nM; in [20], 25000 nM.

`CC(C)n1ccc2c(C(=O)Nc3cccnc3)cc(-c3cccs3)nc21` [JX-062]: the concentration for a half-maximal effect (EC50) was less than 1000 nM in [16]; 130 ± 30 nM in [22]; 800 nM in [1]; 1200 nM in [3]; 400 nM in [6]; 1200 nM in data set [7]. For the same molecule, the EC50 in data set [8] is more than 10000 nM; in [9], more than 10000 nM; in data set [11] it was 1200 nM; in [19], 160 ± 30 nM; in data set [12], 1200 nM; in data set [14], 1200 nM. In addition, the concentration giving a half-maximal response (EC50) in data set [21] came out at 260 ± 70 nM; in data set [15], 1300 nM. The values for the CC50 in [17], in [18] and in [20] were 25000 nM, 18000 nM and 25000 nM, respectively.

In the case of `CC(C)n1ccc2c(C(=O)Nc3ccc(F)cc3)cc(-c3cccs3)nc21` [JX-037], the half-maximal effective concentration (EC50) in data set [16] was less than 1000 nM; in [22], 570 ± 150 nM; in data set [1], 2200 nM; in data set [7] it was 3600 ± 600 nM; in data set [8], more than 25000 nM; in data set [9], more than 25000 nM. Also, the concentration giving a half-maximal response (EC50) in [11] turned out to be 3600 ± 600 nM; in data set [19], 860 ± 310 nM; in [12], 2700 ± 600 nM; in data set [14] it was 3100 ± 100 nM; in data set [21], 1100 ± 300 nM; in data set [15], 3100 ± 100 nM. For the same molecule, the SI entry in data set [22] (Enterovirus D68/US/Mo/14-18949, >200/0.57) is given as “over 350”. In addition, the CC50 in data set [23] is 100000 nM; in [20], more than 200000 nM.

Turning to `CC(C)n1nnc2c(C(=O)Nc3ccc(F)cc3)cc(-c3cccs3)nc21` [JX-035], the 50% effective concentration (EC50) in data set [1], in data set [2], in [3], in data set [4], in [5] and in [6] was more than 10000 nM each time. Further, the concentration giving a half-maximal response (EC50) in data set [7], in data set [8], in data set [9], in data set [10], in data set [11] and in data set [12] was more than 10000 nM each time. The EC50 in data set [13], in [14] and in data set [15] was more than 10000 nM in each case.

In the case of `CC(C)n1ncc2c(C(=O)Nc3ccccc3F)cc(-c3cccs3)nc21` [JX-001, reference compound], the EC50 was found to be 330 ± 50 nM in data set [22]; 2300 ± 1200 nM in [1]; 2600 ± 900 nM in data set [2]; 1500 ± 400 nM in [3]; 2300 ± 900 nM in data set [4]; 2400 nM in [5]. The EC50 turned out to be 2100 ± 1200 nM in data set [6]; 2800 ± 400 nM in data set [7]; 7000 nM in [8]; 7000 nM in data set [9]; 3000 nM in [10]; 2400 ± 200 nM in [11]. Besides, the 50% effective concentration (EC50) in data set [19] worked out at 350 ± 50 nM; in data set [12], 2300 nM; in data set [13] it was 1200 nM; in data set [14], 2300 nM; in [21] it was 500 ± 170 nM; in data set [15], 1400 ± 600 nM. Moreover, the CC50 in data set [17] was found to be 50000 nM; in data set [18] it was 12500 nM; in data set [20], 200000 nM.
